Here are results for 21 compounds from patent US11566030B2, “Substituted 2,6-dihydropyrrolo[3,4-c]pyrazoles as pyruvate kinase activators” (priority 2021, dated 2023).

The structures appear in SMILES notation. Read-outs that look alike come from different tables or passages of the source.

In this test the target is T1, Human pyruvate kinase R (PKR) (Homo sapiens, UniProt P30613).
T1 construct: Human pyruvate kinase R (PKR), residues 14-574; 6xHis-8xArg-SUMO (N, cleaved yes); host or cells: E. coli
T1 sequence (P30613 14-574): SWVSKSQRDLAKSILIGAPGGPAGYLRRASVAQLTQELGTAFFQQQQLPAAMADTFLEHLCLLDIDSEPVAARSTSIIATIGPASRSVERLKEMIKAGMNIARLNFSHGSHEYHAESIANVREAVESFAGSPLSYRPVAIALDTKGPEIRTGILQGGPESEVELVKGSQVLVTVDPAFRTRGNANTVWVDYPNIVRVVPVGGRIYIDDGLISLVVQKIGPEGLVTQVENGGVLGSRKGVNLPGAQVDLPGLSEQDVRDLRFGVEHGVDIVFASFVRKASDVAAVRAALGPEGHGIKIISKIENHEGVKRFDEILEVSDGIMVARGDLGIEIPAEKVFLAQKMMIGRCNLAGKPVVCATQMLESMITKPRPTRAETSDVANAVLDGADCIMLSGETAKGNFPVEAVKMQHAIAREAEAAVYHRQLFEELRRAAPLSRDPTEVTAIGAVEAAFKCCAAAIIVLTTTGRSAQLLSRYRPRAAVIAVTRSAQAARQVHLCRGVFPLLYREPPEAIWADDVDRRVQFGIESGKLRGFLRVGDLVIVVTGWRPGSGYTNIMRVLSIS
Description: Biochemical assay for activation of pyruvate kinase R (Kinase-Glo luminescence, ATP generation). The settings on record: for Emax: read-out: PKR % activation, maximal activation level achieved with each compound relative to the activation level achieved by AG-348 @ 10 μM. On the procedure:
Human pyruvate kinase R (PKR), residues 14-574, and human pyruvate kinase M2, residues 1-531, were cloned into expression plasmids and obtained from ATUM Bio (Newark, Calif.). Proteins were translated as fusions with 6×-His,8×-Arg, and SUMO at the N-terminus. A third construct of human PKR was truncated, residues 50-574, and similarly cloned for use in crystallography experiments. All proteins were cloned, expressed in E. coli, and purified using similar protocols. Cells were grown at 30° C. in Luria-Bertani broth supplemented with 0.4% glucose to OD600=0.8 and induced with 0.4 mM IPTG at 16° C. for 18 hours. Cells were harvested by centrifugation, resuspended in 50 mM potassium phosphate pH 8.0, 500 mM NaCl, 25 mM imidazole pH 8.0, and 3 mM β-mercaptoethanol. Cells were lysed using a LM20 microfluidizer from Microfluidics (Westwood, Mass.). The crude lysate was immediately supplemented with 0.2 mM phenylmethylsulfonyl fluoride (PMSF) and centrifuged at 20,000 g for 20 minutes. The soluble fraction was subsequently incubated with 2 mL Ni-NTA (GE Healthcare) per 1,000 ODs for 1 hour at 4° C. Following incubation with the Ni-NTA resin, lysate was removed by pelleting resin at 2,500 g for 3 minutes and washed 3 times with 9 bed volumes of 50 mM potassium phosphate pH 8.0, 500 mM NaCl, 25 mM imidazole, and 3 mM β-mercaptoethanol. Following the batch wash Ni-NTA resin was loaded onto a gravity column and His-tagged protein was eluted with 6 bed volumes of 10 mM Tris/HCl pH 8.0, 200 mM NaCl, 500 mM imidazole, and 3 mM β-mercaptoethanol. Eluted protein was dialyzed overnight against 10 mM Tris/HCl pH 8.0, 200 mM NaCl, and 1 mM DTT and the 6×-His-8×-Arg-SUMO-tag was cleaved using a 20:1 molar ratio of protein: 3C protease. The protein was purified by anion exchange chromatography on a HiTrapQ or MonoQ 10/100 GL column (GE Healthcare) via a linear NaCl gradient and twice by size exclusion chromatography using a Superdex S200 26/60 column (GE Healthcare) run in 10 mM Tris/HCl pH 8.0, 200 mM NaCl, 10 mM MgCl2, 1 mM DTT. Proteins were concentrated to −12 mg/mL for crystallization and flash frozen for storage.
Biochemical assay for Activation of Pyruvate Kinase R
Activation of pyruvate kinase R (PKR) and pyruvate kinase M2 (PKM2) were measured using a luminescence based measurement of ATP generation and the Kinase-Glo luminescent kinase reagent kit.

[1] abbreviates: PKR AC50 (nM), 0.1 nM PKR, 0.3 mM ADP, 0.1 mM PEP, 1% DMSO.

As for `O=C([C@H](CO)c1ccccc1Cl)N1Cc2cn(S(=O)(=O)c3cnn(CC(F)F)c3)nc2C1` [Compound 9, (2S)-2-(2-chlorophenyl)-1-[2-[1-(2,2-difluoroethyl)pyrazol-4-ylsulfonyl]-4H,6H-pyrrolo[3,4-c]pyrazol-5-yl]-3-hydroxypropan-1-one], the activity was half-maximal at 3 nM (AC50) and the Emax was determined as 126%.
Taken in the same sequence, the figures for `Cc1c(S(=O)(=O)n2cc3c(n2)CN(C(=O)[C@H](CO)c2ccccc2)C3)cnn1CC(F)F` [Compound 11, (2S)-1-(2-{[1-(2,2-difluoroethyl)-5-methyl-1H-pyrazol-4-yl]sulfonyl}-2H,4H,5H,6H-pyrrolo[3,4-c]pyrazol-5-yl)-3-hydroxy-2-phenylpropan-1-one] were 5.7 nM and 92%.
Consider `O=C([C@H](CO)c1ccccc1F)N1Cc2cn(S(=O)(=O)c3ccn(CC(F)F)n3)nc2C1` [Compound 12, (2S)-1-(2-{[1-(2,2-difluoroethyl)-1H-pyrazol-3-yl]sulfonyl}-2H,4H,5H,6H-pyrrolo[3,4-c]pyrazol-5-yl)-2-(2-fluorophenyl)-3-hydroxypropan-1-one], for which the Emax was determined as 121%. Besides, the activity under setting [1] was half-maximal at 6.9 nM (AC50).
`O=C([C@H](CO)c1ccccc1Cl)N1Cc2cn(S(=O)(=O)c3ccn(CC(F)F)n3)nc2C1` [Compound 13, (2S)-2-(2-chlorophenyl)-1-(2-{[1-(2,2-difluoroethyl)-1H-pyrazol-3-yl]sulfonyl}-2H,4H,5H,6H-pyrrolo[3,4-c]pyrazol-5-yl)-3-hydroxypropan-1-one]: the Emax is 133%. Further, under setting [1], the activity was half-maximal at 7 nM (AC50).
As to `Cc1c(S(=O)(=O)n2cc3c(n2)CN(C(=O)[C@H](CO)c2ccccc2F)C3)cnn1CC(F)F` [Compound 14, (2S)-1-(2-{[1-(2,2-difluoroethyl)-5-methyl-1H-pyrazol-4-yl]sulfonyl}-2H,4H,5H,6H-pyrrolo[3,4-c]pyrazol-5-yl)-2-(2-fluorophenyl)-3-hydroxypropan-1-one], the activity was half-maximal at 7.1 nM (AC50) and the Emax came out at 129%.
With `Cc1nc(C)c(S(=O)(=O)n2cc3c(n2)CN(C(=O)[C@H](CO)c2ccccc2)C3)s1` [Compound 15, (2S)-1-{2-[(2,4-dimethyl-1,3-thiazol-5-yl)sulfonyl]-2H,4H,5H,6H-pyrrolo[3,4-c]pyrazol-5-yl}-3-hydroxy-2-phenylpropan-1-one], half-maximal activity (AC50) was put at 44 nM and the Emax stood at 15%.
As for `Cc1noc(C)c1S(=O)(=O)n1cc2c(n1)CN(C(=O)[C@H](CO)c1ccccc1)C2` [Compound 16, (2S)-1-{2-[(3,5-dimethyl-1,2-oxazol-4-yl)sulfonyl]-2H,4H,5H,6H-pyrrolo[3,4-c]pyrazol-5-yl}-3-hydroxy-2-phenylpropan-1-one], the Emax is 55%. In addition, the concentration at half-maximal activity (AC50) under setting [1] was determined as 1000 nM.
In the same order, the values of `O=C([C@H](CO)c1ccccc1)N1Cc2cn(S(=O)(=O)c3ccc(CCC(F)(F)F)s3)nc2C1` [Compound 17, (2S)-3-hydroxy-2-phenyl-1-(2-{[5-(3,3,3-trifluoropropyl)thiophen-2-yl]sulfonyl}-2H,4H,5H,6H-pyrrolo[3,4-c]pyrazol-5-yl)propan-1-one] are 23% and 53 nM.
Taken in the same sequence, the figures for `O=C([C@H](CO)c1ccccc1)N1Cc2cn(S(=O)(=O)c3ccc(-c4ccccc4)s3)nc2C1` [Compound 18, (2S)-3-hydroxy-2-phenyl-1-{2-[(5-phenylthiophen-2-yl)sulfonyl]-2H,4H,5H,6H-pyrrolo[3,4-c]pyrazol-5-yl}propan-1-one] were 70% and 72 nM.
In the same order, the values of `O=C([C@H](CO)c1ccccc1)N1Cc2cn(S(=O)(=O)c3ccc(Br)s3)nc2C1` [Compound 19, (2S)-1-{2-[(5-bromothiophen-2-yl)sulfonyl]-2H,4H,5H,6H-pyrrolo[3,4-c]pyrazol-5-yl}-3-hydroxy-2-phenylpropan-1-one] are 67% and 19 nM.
Regarding `Cc1nc(CCC(F)(F)F)sc1S(=O)(=O)n1cc2c(n1)CN(C(=O)[C@H](CO)c1ccccc1)C2` [Compound 20, (2S)-3-hydroxy-1-(2-{[4-methyl-2-(3,3,3-trifluoropropyl)-1,3-thiazol-5-yl]sulfonyl}-2H,4H,5H,6H-pyrrolo[3,4-c]pyrazol-5-yl)-2-phenylpropan-1-one], the half-maximal activity concentration (AC50) was determined as 720 nM and the Emax came out at 7%.
In the same order, the values of `CCc1ccc(S(=O)(=O)n2cc3c(n2)CN(C(=O)[C@H](CO)c2ccccc2)C3)s1` [Compound 21, (2S)-1-{2-[(5-ethylthiophen-2-yl)sulfonyl]-2H,4H,5H,6H-pyrrolo[3,4-c]pyrazol-5-yl}-3-hydroxy-2-phenylpropan-1-one] are 16 nM and 65%.
As for `Cc1nc(OCC(F)(F)F)sc1S(=O)(=O)n1cc2c(n1)CN(C(=O)[C@H](CO)c1ccccc1)C2` [Compound 22, (2S)-3-hydroxy-1-(2-{[4-methyl-2-(2,2,2-trifluoroethoxy)-1,3-thiazol-5-yl]sulfonyl}-2H,4H,5H,6H-pyrrolo[3,4-c]pyrazol-5-yl)-2-phenylpropan-1-one], the Emax came to 0%. For the same compound, half-maximal activity under setting [1] (AC50) was put at 1000 nM.
As for `COc1nc(C)c(S(=O)(=O)n2cc3c(n2)CN(C(=O)[C@H](CO)c2ccccc2F)C3)s1` [Compound 23, (2S)-2-(2-fluorophenyl)-3-hydroxy-1-{2-[(2-methoxy-4-methyl-1,3-thiazol-5-yl)sulfonyl]-2H,4H,5H,6H-pyrrolo[3,4-c]pyrazol-5-yl}propan-1-one], the half-maximal activity concentration (AC50) stood at 8.6 nM and the Emax was 30%.
Turning to `O=C([C@H](CO)c1ccccc1)N1Cc2cn(S(=O)(=O)c3cn(CC(F)F)cn3)nc2C1` [Compound 24, (2S)-1-(2-{[1-(2,2-difluoroethyl)-1H-imidazol-4-yl]sulfonyl}-2H,4H,5H,6H-pyrrolo[3,4-c]pyrazol-5-yl)-3-hydroxy-2-phenylpropan-1-one], the Emax was 93%. The compound also displayed a concentration at half-maximal activity (AC50) under setting [1] of 64 nM.
In the same order, the values of `O=C([C@@H](CO)c1ccccc1F)N1Cc2cn(S(=O)(=O)c3cnn(CC(F)(F)F)c3)nc2C1` [Compound 33, (2R)-2-(2-fluorophenyl)-3-hydroxy-1-[2-[1-(2,2,2-trifluoroethyl)pyrazol-4-ylsulfonyl]-4H,6H-pyrrolo[3,4-c]pyrazol-5-yl]propan-1-one] are 89% and 450 nM.
With `O=C([C@@H](O)c1ccccc1)N1Cc2cn(S(=O)(=O)c3cnn(CC(F)F)c3)nc2C1` [Compound 34, (2S)-1-[2-[1-(2,2-difluoroethyl)pyrazol-4-ylsulfonyl]-4H,6H-pyrrolo[3,4-c]pyrazol-5-yl]-2-hydroxy-2-phenylethanone], the AC50 is 930 nM and the Emax was 102%.
As for `O=C([C@@H](CO)c1ccccc1F)N1Cc2cn(S(=O)(=O)c3cnn(CCF)c3)nc2C1` [Compound 35, (2R)-1-[2-[1-(2-fluoroethyl)pyrazol-4-ylsulfonyl]-4H,6H-pyrrolo[3,4c]pyrazol-5-yl]-2-(2-fluorophenyl)-3-hydroxypropan-1-one], the Emax turned out to be 125%. The same compound had an AC50 under setting [1] of 130 nM.
Consider `O=C([C@H](O)c1ccccc1F)N1Cc2cn(S(=O)(=O)c3cnn(CC(F)F)c3)nc2C1` [Compound 36, (2R)-1-[2-[1-(2,2-difluoroethyl)pyrazol-4-ylsulfonyl]-4H,6H-pyrrolo[3,4-c]pyrazol-5-yl]-2-(2-fluorophenyl)-2-hydroxyethanone], for which the Emax is 85%. The concentration at half-maximal activity (AC50) under setting [1] worked out at 23 nM.
Taken in the same sequence, the figures for `O=C([C@@H](O)c1ccccc1F)N1Cc2cn(S(=O)(=O)c3cnn(CC(F)F)c3)nc2C1` [Compound 37, (2S)-1-[2-[1-(2,2-difluoroethyl)pyrazol-4-ylsulfonyl]-4H,6H-pyrrolo[3,4-c]pyrazol-5-yl]-2-(2-fluorophenyl)-2-hydroxyethanone] were 126% and 960 nM.
Taken in the same sequence, the figures for `COCCn1ccc(S(=O)(=O)n2cc3c(n2)CN(C(=O)[C@H](CO)c2ccccc2F)C3)n1` [Compound 44, (2S)-2-(2-fluorophenyl)-3-hydroxy-1-[2-[1-(2-methoxyethyl)pyrazol-3-ylsulfonyl]-4H,6H-pyrrolo[3,4-c]pyrazol-5-yl]propan-1-one] were 53% and 110 nM.
